Experimental data as given in PubChem BioAssay (NCI).
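Results reflect a 48-hour exposure of cells in 96-well plates to compound at five concentrations. Abbreviation: GI50, concentration required for 50% inhibition of growth. TGI is the concentration that stops growth completely.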

Legend:
Assay in all cases: inhibition of tumour cell growth, NCI panel, 48 h
UACC-257 melanoma = system: UACC-257 melanoma
MCF7 breast = system: MCF7 breast
COLO 205 colon = system: COLO 205 colon
NCI-H23 lung = system: NCI-H23 lung
OVCAR-8 ovarian = system: OVCAR-8 ovarian
SF-539 CNS = system: SF-539 CNS
HCC-2998 colon = system: HCC-2998 colon
NCI-H226 lung = system: NCI-H226 lung
MOLT-4 leukemia = system: MOLT-4 leukemia
KM12 colon = system: KM12 colon

Cc1c(C)c2c(c(C)c1OCC(=O)O)CC[C@@](C)(CCC[C@@H](C)CCC[C@@H](C)CCCC(C)C)O2
GI50 (UACC-257 melanoma): 77.2 µM
TGI (UACC-257 melanoma): 183 µM
GI50 (MCF7 breast): 74.6 µM
TGI (MCF7 breast): 199 µM
GI50 (COLO 205 colon): 53.4 µM
TGI (COLO 205 colon): 144 µM
GI50 (NCI-H23 lung): 75.7 µM
TGI (NCI-H23 lung): 200 µM
GI50 (OVCAR-8 ovarian): 59.4 µM
TGI (OVCAR-8 ovarian): 152 µM
GI50 (SF-539 CNS): 78.1 µM
TGI (SF-539 CNS): 153 µM
GI50 (HCC-2998 colon): 102 µM
TGI (HCC-2998 colon): 224 µM
GI50 (NCI-H226 lung): 89 µM
TGI (NCI-H226 lung): 244 µM
GI50 (MOLT-4 leukemia): 50.4 µM
TGI (MOLT-4 leukemia): 202 µM
GI50 (KM12 colon): 63.3 µM
TGI (KM12 colon): 173 µM

C=C(CN1c2ccccc2Sc2ccccc21)c1ccc(C(=O)Nc2ccccc2N)cc1
GI50 (UACC-257 melanoma): 67.6 µM
TGI (UACC-257 melanoma): > 100 µM
GI50 (MCF7 breast): > 42 µM
TGI (MCF7 breast): > 100 µM
GI50 (COLO 205 colon): 34.7 µM
TGI (COLO 205 colon): > 100 µM
GI50 (NCI-H23 lung): > 100 µM
TGI (NCI-H23 lung): > 100 µM
GI50 (OVCAR-8 ovarian): > 80.4 µM
TGI (OVCAR-8 ovarian): > 100 µM
GI50 (SF-539 CNS): > 26 µM
TGI (SF-539 CNS): > 100 µM
GI50 (HCC-2998 colon): 14.6 µM
TGI (HCC-2998 colon): > 86.3 µM
GI50 (NCI-H226 lung): 8.53 µM
TGI (NCI-H226 lung): > 100 µM
GI50 (MOLT-4 leukemia): 0.276 µM
TGI (MOLT-4 leukemia): > 65.2 µM
GI50 (KM12 colon): 5.84 µM
TGI (KM12 colon): > 100 µM

Cc1noc(C)c1-c1cnc2c(-c3ccc(C(=O)O)cc3)cn([C@@H](C)c3ccccn3)c2c1
GI50 (UACC-257 melanoma): 1.62 µM
TGI (UACC-257 melanoma): > 100 µM
GI50 (MCF7 breast): 0.186 µM
TGI (MCF7 breast): > 100 µM
GI50 (COLO 205 colon): 0.413 µM
TGI (COLO 205 colon): > 100 µM
GI50 (NCI-H23 lung): 3.32 µM
TGI (NCI-H23 lung): > 100 µM
GI50 (OVCAR-8 ovarian): 2.89 µM
TGI (OVCAR-8 ovarian): > 100 µM
GI50 (SF-539 CNS): 0.842 µM
TGI (SF-539 CNS): > 100 µM
GI50 (HCC-2998 colon): 0.966 µM
TGI (HCC-2998 colon): 10.9 µM
GI50 (NCI-H226 lung): 5.02 µM
TGI (NCI-H226 lung): > 46.6 µM
GI50 (MOLT-4 leukemia): 12.6 µM
TGI (MOLT-4 leukemia): > 100 µM
GI50 (KM12 colon): 2.73 µM
TGI (KM12 colon): > 100 µM

NC(CSC(c1ccccc1)(c1ccccc1)c1ccc(F)cc1)C(=O)O (centres undefined)
GI50 (UACC-257 melanoma): 0.635 µM
TGI (UACC-257 melanoma): > 100 µM
GI50 (MCF7 breast): 0.344 µM
TGI (MCF7 breast): > 100 µM
GI50 (COLO 205 colon): 0.231 µM
TGI (COLO 205 colon): 0.667 µM
GI50 (NCI-H23 lung): 0.657 µM
TGI (NCI-H23 lung): > 28.3 µM
GI50 (OVCAR-8 ovarian): 0.493 µM
TGI (OVCAR-8 ovarian): 41.7 µM
GI50 (SF-539 CNS): 0.285 µM
TGI (SF-539 CNS): 0.921 µM
GI50 (HCC-2998 colon): 0.438 µM
TGI (HCC-2998 colon): 11.5 µM
GI50 (NCI-H226 lung): 5.64 µM
TGI (NCI-H226 lung): > 76.3 µM
GI50 (MOLT-4 leukemia): 1.37 µM
TGI (MOLT-4 leukemia): > 46.9 µM
GI50 (KM12 colon): 0.405 µM
TGI (KM12 colon): 20.7 µM

COc1ccc(-c2n[nH]nc2-c2cc(OC)c3c(c2)OCO3)cc1
GI50 (UACC-257 melanoma): 20.5 µM
TGI (UACC-257 melanoma): > 100 µM
GI50 (MCF7 breast): < 0.01 µM
TGI (MCF7 breast): > 82.3 µM
GI50 (COLO 205 colon): 0.206 µM
TGI (COLO 205 colon): 1.17 µM
GI50 (NCI-H23 lung): 0.0314 µM
TGI (NCI-H23 lung): 29.6 µM
GI50 (OVCAR-8 ovarian): 0.035 µM
TGI (OVCAR-8 ovarian): > 52.9 µM
GI50 (SF-539 CNS): 0.0154 µM
TGI (SF-539 CNS): 0.0449 µM
GI50 (HCC-2998 colon): 0.069 µM
TGI (HCC-2998 colon): 2.4 µM
GI50 (NCI-H226 lung): 0.83 µM
TGI (NCI-H226 lung): > 100 µM
GI50 (MOLT-4 leukemia): 0.0627 µM
TGI (MOLT-4 leukemia): 5.45 µM
GI50 (KM12 colon): < 0.015 µM
TGI (KM12 colon): 8.27 µM

COc1ccc2c(c1)O/C(=C\c1cccc(OCC(=O)Nc3nc(C)c(C)s3)c1)C2=O
GI50 (UACC-257 melanoma): > 100 µM
TGI (UACC-257 melanoma): > 100 µM
GI50 (MCF7 breast): 3.17 µM
TGI (MCF7 breast): 50.1 µM
GI50 (COLO 205 colon): 22.3 µM
TGI (COLO 205 colon): > 100 µM
GI50 (NCI-H23 lung): 1.19 µM
GI50 (OVCAR-8 ovarian): 4.7 µM
TGI (OVCAR-8 ovarian): > 100 µM
GI50 (SF-539 CNS): 1.59 µM
TGI (SF-539 CNS): 2.98 µM
GI50 (HCC-2998 colon): 9.43 µM
TGI (HCC-2998 colon): > 100 µM
GI50 (NCI-H226 lung): > 53 µM
TGI (NCI-H226 lung): > 100 µM
GI50 (MOLT-4 leukemia): 3.38 µM
TGI (MOLT-4 leukemia): > 22.5 µM
GI50 (KM12 colon): 1.02 µM

Nc1ccccc1C(=O)NC(=O)Nc1ccc(Oc2ncc(Br)cn2)c(Cl)c1
TGI (UACC-257 melanoma): 25.3 µM
TGI (MCF7 breast): 30.9 µM
TGI (COLO 205 colon): 0.421 µM
TGI (NCI-H23 lung): 4.86 µM
TGI (OVCAR-8 ovarian): 4.77 µM
TGI (SF-539 CNS): 0.0204 µM
TGI (HCC-2998 colon): 0.19 µM
TGI (NCI-H226 lung): 1.49 µM
GI50 (MOLT-4 leukemia): 0.0511 µM
TGI (MOLT-4 leukemia): 33.9 µM
TGI (KM12 colon): 9.56 µM

COc1cc(Nc2ncnc(Nc3ccc4c(n3)NC(=O)C(C)(C)O4)n2)cc(OC)c1OC
GI50 (UACC-257 melanoma): 3.26 µM
TGI (UACC-257 melanoma): > 100 µM
GI50 (MCF7 breast): 1.32 µM
TGI (MCF7 breast): > 100 µM
GI50 (COLO 205 colon): 0.829 µM
TGI (COLO 205 colon): > 100 µM
GI50 (NCI-H23 lung): 2.59 µM
TGI (NCI-H23 lung): > 100 µM
GI50 (OVCAR-8 ovarian): 10.9 µM
TGI (OVCAR-8 ovarian): > 100 µM
GI50 (SF-539 CNS): 0.23 µM
TGI (SF-539 CNS): 0.673 µM
GI50 (HCC-2998 colon): > 100 µM
TGI (HCC-2998 colon): > 100 µM
GI50 (NCI-H226 lung): 0.297 µM
TGI (NCI-H226 lung): > 100 µM
GI50 (MOLT-4 leukemia): 5.24 µM
TGI (MOLT-4 leukemia): > 100 µM
GI50 (KM12 colon): 0.395 µM
TGI (KM12 colon): > 100 µM

CCc1nn2ncccc2c1-c1ccnc(NC2CC2)n1
GI50 (UACC-257 melanoma): > 25 µM
TGI (UACC-257 melanoma): > 25 µM
GI50 (MCF7 breast): > 25 µM
TGI (MCF7 breast): > 25 µM
GI50 (COLO 205 colon): > 25 µM
TGI (COLO 205 colon): > 25 µM
GI50 (NCI-H23 lung): > 25 µM
TGI (NCI-H23 lung): > 25 µM
GI50 (OVCAR-8 ovarian): > 25 µM
TGI (OVCAR-8 ovarian): > 25 µM
GI50 (SF-539 CNS): > 25 µM
TGI (SF-539 CNS): > 25 µM
GI50 (HCC-2998 colon): > 25 µM
TGI (HCC-2998 colon): > 25 µM
GI50 (NCI-H226 lung): 20.2 µM
TGI (NCI-H226 lung): > 25 µM
GI50 (MOLT-4 leukemia): > 25 µM
TGI (MOLT-4 leukemia): > 25 µM
GI50 (KM12 colon): > 25 µM
TGI (KM12 colon): > 25 µM
